Experimental data: patent US20120252054A1, “SYSTEM FOR TRANSFORMATION OF THE CHLOROPLAST GENOME OF SCENEDESMUS SP. AND DUNALIELLA SP” (priority 2009, published 2012)

Key:
wild type S. dimorphus = assay: Growth in HSM with various concentrations of DCMU or atrazine, wild type; assay type: cell-based, Scenedesmus dimorphus; settings: constant light 50-100 uE with CO2 enrichment, 4 days
[1] = system: S. dimorphus DCMU transformants (CAT cassette); assay: Patching of DCMU-selected CAT-cassette transformants onto TAP agar with chloramphenicol; assay type: cell-based, Scenedesmus dimorphus; settings: TAP agar medium containing 25 μg/mL CAM
Description: In order to determine if DCMU selection could result in incorporation of an expression cassette downstream of the psbA gene, A vector was constructed containing an expression cassette consisting of an endogenous promoter, a chloramphenicol acetyltransferase (CAT) gene, and an endogenous terminator cloned ˜500 bp downstream of the S264A/XbaI mutated psbA gene fragment from S. dimorphus and including the rpl20 gene. Transforming DNA is shown graphically in FIG. 4. In this instance the DNA segment labeled “CAT” is the chloramphenicol acetyl transferase gene from E. coli, the segment labeled “tufA” is the promoter and 5′ UTR sequence for the tufA gene from S. dimorphus, and the segment labeled “rbcL” is the 3′ UTR for the rbcL gene from S. dimorphus. The selection marker cassette is targeted to the S. dimorphus chloroplast genome via the segments labeled “Homology A2” and “Homology B2” which are 1000 bp fragments homologous to sequences of DNA adjacent to nucleotide 065,353 and include an S264A/XbaI mutated partial psbA coding sequence, its 3′UTR, and the rpl20 coding sequence. This vector targets integration of the selection marker cassette approximately 400 bp 3′ of the stop codon of the psbA gene.
Transforming DNA was introduced into S. dimorphus via particle bombardment (as described in EXAMPLE 1) with DNA carried on 550 nm gold particles, @500 psi and a shooting distance of 4 cm. […]

[2] = system: S. obliquus transformants containing the codA transgene; assay: Plating on TAP agar containing 5-fluorocytosine, codA transformants of S. obliquus; assay type: cell-based, Scenedesmus obliquus; settings: 1 mg/mL 5FC
Description: In this example, a nucleic acid encoding cytosine deaminase gene (codA) from E. coli was introduced into S. obliquus. Transforming DNA is shown graphically in FIG. 23. In this instance the DNA segment labeled “codA cr” is the codA encoding gene (SEQ ID NO: 27, codA), the segment labeled “psbD” is the promoter and 5′ UTR for the psbD gene from S. dimorphus, the segment labeled “D1 3′” is the 3′ UTR for the psbA gene from […], and the segment labeled “CAT” is the chloramphenicol acetyl transferase gene (CAT) from E. coli, which is regulated by the promoter and 5′ UTR sequence for the tufA gene from S. dimorphus and the 3′ UTR sequence for the rbcL gene from S. dimorphus. The transgene expression cassette and selection marker are targeted to the S. obliquus chloroplast genome via the segments labeled “Homology A” and “Homology B” which are approximately 1000 bp fragments homologous to sequences of DNA adjacent to nucleotide 071,366 (Site 1; nucleotide locations according to the sequence available from NCBI for S. obliquus, NC—008101) on the 5′ and 3′ sides, respectively. All DNA segments were cloned into pUC19. All DNA manipulations carried out in the construction of this transforming DNA were essentially as described by Sambrook et al., Molecular Cloning: A Laboratory Manual (Cold Spring Harbor Laboratory Press 1989) and Cohen et al., Meth. Enzymol. 297, 192-208, 1998. […]

[3] = system: S. dimorphus transformants containing the codA transgene; assay: Plating on TAP agar containing 5-fluorocytosine, codA transformants; assay type: cell-based, Scenedesmus dimorphus; settings: 1 mg/mL 5FC
Description: In this example, a nucleic acid encoding cytosine deaminase gene (codA) from E. coli was introduced into S. dimorphus. Transforming DNA is shown graphically in FIG. 23. In this instance the DNA segment labeled “codA cr” is the codA encoding gene (SEQ ID NO: 31, codA), the segment labeled “psbD” is the promoter and 5′ UTR for the psbD gene from S. dimorphus, the segment labeled “D1 3′” is the 3′ UTR for the psbA gene from S. dimorphus, and the segment labeled “CAT” is the chloramphenicol acetyl transferase gene (CAT) from E. coli, which is regulated by the promoter and 5′ UTR sequence for the tufA gene from S. dimorphus and the 3′ UTR sequence for the rbcL gene from S. dimorphus. The transgene expression cassette and selection marker are targeted to the S. dimorphus chloroplast genome via the segments labeled “Homology A” and “Homology B” which are approximately 1000 bp fragments homologous to sequences of DNA adjacent to nucleotide 071,366 (Site 1; nucleotide locations according to the sequence available from NCBI for S. obliquus, NC—008101) on the 5′ and 3′ sides, respectively. All DNA segments were cloned into pUC19. All DNA manipulations carried out in the construction of this transforming DNA were essentially as described by Sambrook et al., Molecular Cloning: A Laboratory Manual (Cold Spring Harbor Laboratory Press 1989) and Cohen et al., Meth. Enzymol. 297, 192-208, 1998. […]

Wildtype S. dimorphus = assay: Plating on TAP agar containing 5-fluorocytosine, wild type; assay type: cell-based, Scenedesmus dimorphus; settings: 1 mg/mL 5FC
Protocol: To determine if functional codA is produced by transformed algae cells, cells were grown in TAP media to log phase, pelleted and resuspended to 10^8 cells/mL and plated onto TAP agar medium containing 1 mg/mL 5-fluorocytosine (5FC).
To determine if functional codA is produced by transformed algae cells, cells were plated onto TAP agar medium containing 1 mg/mL 5-fluorocytosine (5FC).

## CN(C)C(=O)Nc1ccc(Cl)c(Cl)c1 [DCMU, 3-(3,4-Dichlorophenyl)-1,1-dimethylurea]
Wild type S. dimorphus
  concentration in which cells fail to grow: 0.5 µM

## CCNc1nc(Cl)nc(NC(C)C)n1 [Atrazine]
Wild type S. dimorphus
  concentration in which cells fail to grow: 0.5 µM

## O=C(N[C@H](CO)[C@H](O)c1ccc([N+](=O)[O-])cc1)C(Cl)Cl [CAM, chloramphenicol]
[1]
  resistance of transformants to chloramphenicol: resistant

## Nc1nc(=O)[nH]cc1F [5FC, 5-fluorocytosine]
[2]
  survival on TAP agar containing 5FC: did not
[3]
  survival on TAP agar containing 5FC: do not
Wildtype S. dimorphus
  survival on TAP agar containing 5FC: survived
